From PubChem BioAssay AID1919000 (Molecular Pharmacology Branch, DTP, NCI, 2023)
Several values for one entry are separate records, joined by “and”; a condition that tells them apart may be missing. Equal values may be shown once. Blank lines part the entries; values can stand above or below the compound they belong to.

Test system: 653999-131-R-J2-PDC complex spheroids, growth % test/control
Assay: Anticancer human tumor 653999-131-R-J2-PDC patient-derived lung adenocarcinoma cell line growth inhibition [AhR]
Details: for viability, T/C: stronger effect = lower value
How it was run: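 Complex tumor spheroids co-cultured with HUVEC and human MSC stroma; AhR antagonists tested in combination with standard-of-care and investigational agents. Top concentration at or near clinical Cmax (else 10 microM), half-log dilutions; growth expressed as percent test/control.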

[1] = curve of first compound, second compound 0.1 µM
[2] = curve of first compound, second compound 0.316 µM
[3] = curve of first compound, second compound 1 µM
[4] = curve of first compound, second compound 3.16 µM
[5] = curve of first compound, second compound 10 µM
[6] = second compound 0.1 µM, first compound 0.0316 µM
[7] = second compound 0.1 µM, first compound 0.1 µM
[8] = second compound 0.1 µM, first compound 0.316 µM
[9] = second compound 0.1 µM, first compound 1 µM
[10] = second compound 0.1 µM, first compound 3.16 µM
[11] = second compound 0.1 µM, first compound 10 µM
[12] = second compound 0.316 µM, first compound 0.0316 µM
[13] = second compound 0.316 µM, first compound 0.1 µM
[14] = second compound 0.316 µM, first compound 0.316 µM
[15] = second compound 0.316 µM, first compound 1 µM
[16] = second compound 0.316 µM, first compound 3.16 µM
[17] = second compound 0.316 µM, first compound 10 µM
[18] = second compound 1 µM, first compound 0.0316 µM
[19] = second compound 1 µM, first compound 0.1 µM
[20] = second compound 1 µM, first compound 0.316 µM
[21] = second compound 1 µM, first compound 1 µM
[22] = second compound 1 µM, first compound 3.16 µM
[23] = second compound 1 µM, first compound 10 µM
[24] = second compound 3.16 µM, first compound 0.0316 µM
[25] = second compound 3.16 µM, first compound 0.1 µM
[26] = second compound 3.16 µM, first compound 0.316 µM
[27] = second compound 3.16 µM, first compound 1 µM
[28] = second compound 3.16 µM, first compound 3.16 µM
[29] = second compound 3.16 µM, first compound 10 µM
[30] = second compound 10 µM, first compound 0.0316 µM
[31] = second compound 10 µM, first compound 0.1 µM
[32] = second compound 10 µM, first compound 0.316 µM
[33] = second compound 10 µM, first compound 1 µM
[34] = second compound 10 µM, first compound 3.16 µM
[35] = second compound 10 µM, first compound 10 µM
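Also: spheroids exposed to agents for seven days.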
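For viability, T/C in this document: 100% = DMSO vehicle control viability.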

IC50 [1]: 839 nM
IC50 [2]: 586 nM
IC50 [3]: 864 nM
IC50 [4]: 1960 nM
IC50 [5]: > 3000 nM
Structure (SMILES): O=C(C=Cn1cnc(-c2cc(C(F)(F)F)cc(C(F)(F)F)c2)n1)NNc1cnccn1 + Cc1ccccc1N=Nc1ccc(NC(=O)c2ccnn2C)c(C)c1
viability, T/C (second compound 0.1 µM, first compound 0.00949 µM): 106%
viability, T/C (second compound 0.1 µM, first compound 0.03 µM): 76.8%
viability, T/C (second compound 0.1 µM, first compound 0.0949 µM): 72.7%
viability, T/C (second compound 0.1 µM, first compound 0.3 µM): 49.5%
viability, T/C (second compound 0.1 µM, first compound 0.949 µM): 48.9%
viability, T/C (second compound 0.1 µM, first compound 3 µM): 48%
viability, T/C (second compound 0.316 µM, first compound 0.00949 µM): 91.8%
viability, T/C (second compound 0.316 µM, first compound 0.03 µM): 93.3%
viability, T/C (second compound 0.316 µM, first compound 0.0949 µM): 70.5%
viability, T/C (second compound 0.316 µM, first compound 0.3 µM): 55.8%
viability, T/C (second compound 0.316 µM, first compound 0.949 µM): 45.3%
viability, T/C (second compound 0.316 µM, first compound 3 µM): 47.9%
viability, T/C (second compound 1 µM, first compound 0.00949 µM): 94.4%
viability, T/C (second compound 1 µM, first compound 0.03 µM): 91.1%
viability, T/C (second compound 1 µM, first compound 0.0949 µM): 66%
viability, T/C (second compound 1 µM, first compound 0.3 µM): 56.9%
viability, T/C (second compound 1 µM, first compound 0.949 µM): 49.3%
viability, T/C (second compound 1 µM, first compound 3 µM): 47.4%
viability, T/C (second compound 3.16 µM, first compound 0.00949 µM): 105%
viability, T/C (second compound 3.16 µM, first compound 0.03 µM): 81.1%
viability, T/C (second compound 3.16 µM, first compound 0.0949 µM): 75.9%
viability, T/C (second compound 3.16 µM, first compound 0.3 µM): 58.4%
viability, T/C (second compound 3.16 µM, first compound 0.949 µM): 55.7%
viability, T/C (second compound 3.16 µM, first compound 3 µM): 47%
viability, T/C (second compound 10 µM, first compound 0.00949 µM): 85.7%
viability, T/C (second compound 10 µM, first compound 0.03 µM): 83.8%
viability, T/C (second compound 10 µM, first compound 0.0949 µM): 66.7%
viability, T/C (second compound 10 µM, first compound 0.3 µM): 53.6%
viability, T/C (second compound 10 µM, first compound 0.949 µM): 52%
viability, T/C (second compound 10 µM, first compound 3 µM): 49%

IC50 [1]: > 10000 nM
IC50 [2]: > 10000 nM
IC50 [3]: > 10000 nM
IC50 [4]: > 10000 nM
IC50 [5]: > 10000 nM
Structure (SMILES): O=C(c1cc(Cc2n[nH]c(=O)c3ccccc23)ccc1F)N1CCN(C(=O)C2CC2)CC1 + CC(CO)NC(=O)c1cc(-c2ccc(Cl)cc2)nn(-c2cnn(C)c2)c1=O
viability, T/C [6]: 82.1%
viability, T/C [7]: 89.5%
viability, T/C [8]: 81.5%
viability, T/C [9]: 83.6%
viability, T/C [10]: 79.9%
viability, T/C [11]: 76.9%
viability, T/C [12]: 91%
viability, T/C [13]: 97.5%
viability, T/C [14]: 96.1%
viability, T/C [15]: 84.2%
viability, T/C [16]: 81.1%
viability, T/C [17]: 78.7%
viability, T/C [18]: 84.7%
viability, T/C [19]: 90.4%
viability, T/C [20]: 89.5%
viability, T/C [21]: 85.6%
viability, T/C [22]: 81.7%
viability, T/C [23]: 79.5%
viability, T/C [24]: 95%
viability, T/C [25]: 86.6%
viability, T/C [26]: 93%
viability, T/C [27]: 85.5%
viability, T/C [28]: 84.6%
viability, T/C [29]: 78.3%
viability, T/C [30]: 88%
viability, T/C [31]: 94.5%
viability, T/C [32]: 82.9%
viability, T/C [33]: 84.5%
viability, T/C [34]: 76.3%
viability, T/C [35]: 75.7%

IC50 [1]: 6200 nM
IC50 [2]: 1780 nM
IC50 [3]: > 10000 nM
IC50 [4]: 948 nM
IC50 [5]: < 31.6 nM
Structure (SMILES): NS(=O)(=O)OCC1CC(n2ccc3c(NC4CCc5ccccc54)ncnc32)CC1O (stereo unspecified) + Cc1cncc(-c2nc(NCCc3c[nH]c4ccccc34)c3ncn(C(C)C)c3n2)c1
viability, T/C [6]: 108%
viability, T/C [7]: 106%
viability, T/C [8]: 101%
viability, T/C [9]: 71.4%
viability, T/C [10]: 50.4%
viability, T/C [11]: 49.8%
viability, T/C [12]: 113%
viability, T/C [13]: 112%
viability, T/C [14]: 106%
viability, T/C [15]: 52.2%
viability, T/C [16]: 48.4%
viability, T/C [17]: 47.2%
viability, T/C [18]: 112%
viability, T/C [19]: 120%
viability, T/C [20]: 108%
viability, T/C [21]: 49.3%
viability, T/C [22]: 50.5%
viability, T/C [23]: 51.2%
viability, T/C [24]: 117%
viability, T/C [25]: 104%
viability, T/C [26]: 90.5%
viability, T/C [27]: 46.8%
viability, T/C [28]: 40.5%
viability, T/C [29]: 43.3%
viability, T/C [30]: 44.4%
viability, T/C [31]: 38%
viability, T/C [32]: 39.4%
viability, T/C [33]: 22.3%
viability, T/C [34]: 18.5%
viability, T/C [35]: 19.4%

IC50 [1]: > 10000 nM
IC50 [2]: > 10000 nM
IC50 [3]: > 10000 nM
IC50 [4]: > 10000 nM
IC50 [5]: > 10000 nM
Structure (SMILES): O=C(c1cc(Cc2n[nH]c(=O)c3ccccc23)ccc1F)N1CCN(C(=O)C2CC2)CC1 + Cc1ccccc1N=Nc1ccc(NC(=O)c2ccnn2C)c(C)c1
viability, T/C [6]: 106%
viability, T/C [7]: 101%
viability, T/C [8]: 91%
viability, T/C [9]: 92.7%
viability, T/C [10]: 88.4%
viability, T/C [11]: 77.6%
viability, T/C [12]: 96.1%
viability, T/C [13]: 101%
viability, T/C [14]: 95.5%
viability, T/C [15]: 89.3%
viability, T/C [16]: 89.6%
viability, T/C [17]: 84.3%
viability, T/C [18]: 94%
viability, T/C [19]: 104%
viability, T/C [20]: 94.8%
viability, T/C [21]: 84.2%
viability, T/C [22]: 91.8%
viability, T/C [23]: 82%
viability, T/C [24]: 95.1%
viability, T/C [25]: 94.9%
viability, T/C [26]: 91.5%
viability, T/C [27]: 87.1%
viability, T/C [28]: 85%
viability, T/C [29]: 76.2%
viability, T/C [30]: 89.8%
viability, T/C [31]: 88.3%
viability, T/C [32]: 87%
viability, T/C [33]: 82.3%
viability, T/C [34]: 84.4%
viability, T/C [35]: 72.8%

IC50 (compound alone, run of 05/31/2022): > 10000 nM
Structure (SMILES): CC(CO)NC(=O)c1cc(-c2ccc(Cl)cc2)nn(-c2cnn(C)c2)c1=O (stereo unspecified)
viability, T/C (compound 0.1 µM): 93.8% [middle of 20 runs]

IC50 (curve of compound): > 10000 nM
Structure (SMILES): CC(C)c1c(-c2ccccc2)nc2c(C#N)c[nH]n2c1=O
viability, T/C (compound 0.0316 µM): 109% and 93.9% and 110%
viability, T/C (compound 0.1 µM): 112% (2×) and 109%
viability, T/C (compound 0.316 µM): 96.8% and 108% and 104%
viability, T/C (compound 1 µM): 90.2% and 116% and 109%
viability, T/C (compound 3.16 µM): 103% and 101% (2×)
viability, T/C (compound 10 µM): 96.2% (2×) and 103%

IC50 [1]: 846 nM
IC50 [2]: 568 nM
IC50 [3]: 513 nM
IC50 [4]: 965 nM
IC50 [5]: 962 nM
Structure (SMILES): COc1cc(C2c3cc4c(cc3C(OC3OC5COC(C)OC5C(O)C3O)C3COC(=O)C23)OCO4)cc(OC)c1O (stereo unspecified) + Cc1ccccc1N=Nc1ccc(NC(=O)c2ccnn2C)c(C)c1
viability, T/C [6]: 86%
viability, T/C [7]: 76%
viability, T/C [8]: 58.6%
viability, T/C [9]: 48.8%
viability, T/C [10]: 38.1%
viability, T/C [11]: 28.3%
viability, T/C [12]: 86.2%
viability, T/C [13]: 68.6%
viability, T/C [14]: 54%
viability, T/C [15]: 47.3%
viability, T/C [16]: 34%
viability, T/C [17]: 29.1%
viability, T/C [18]: 90.2%
viability, T/C [19]: 72.6%
viability, T/C [20]: 53.7%
viability, T/C [21]: 42.8%
viability, T/C [22]: 37.7%
viability, T/C [23]: 30.2%
viability, T/C [24]: 80%
viability, T/C [25]: 77.4%
viability, T/C [26]: 62%
viability, T/C [27]: 46.1%
viability, T/C [28]: 42.5%
viability, T/C [29]: 27.7%
viability, T/C [30]: 72.6%
viability, T/C [31]: 68.7%
viability, T/C [32]: 58%
viability, T/C [33]: 49%
viability, T/C [34]: 41.4%
viability, T/C [35]: 31.8%

IC50 (curve of compound): > 300 nM
Structure (SMILES): Nc1ncn(C2CC(O)C(CO)S2)c(=O)n1 (stereo unspecified)
viability, T/C (compound 0.000949 µM): 101% and 99.4% and 103%
viability, T/C (compound 0.003 µM): 96.3% and 106% and 112%
viability, T/C (compound 0.00949 µM): 98.4% and 110% and 100%
viability, T/C (compound 0.03 µM): 94.8% and 91% and 102%
viability, T/C (compound 0.0949 µM): 94.3% and 101% and 104%
viability, T/C (compound 0.3 µM): 86.8% and 100% and 89%
